Reference: US20240132431A1, “METHOD FOR ALKYLATING ACIDIC FUNCTIONAL GROUP” (Chugai Seiyaku Kabushiki Kaisha, priority 2021, published 2024)

Target: T1, Bcl-2 protein (Recombinant Human Bcl-2 Protein) (Homo sapiens, UniProt P10415)
T1 construct: purchased Novus NBP2-34889
Assay: Binding evaluation of mixture library compounds to Bcl-2 using AS-MS (affinity selection mass spectrometry)
Outline: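 Readout is ASMS Ratio (%), (A−C)/B×100, from reversed-phase LC/MS of SEC-passed extracts, with protein-free unfiltered standard (B) and protein-free SEC blank (C). Recombinant human Bcl-2 at 20 μM final met ~1200 pooled compounds at […] each for 1 h, 23° C., dark, in Tris-HCl pH 7.4 buffer.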

T1 sequence (P10415 whole entry): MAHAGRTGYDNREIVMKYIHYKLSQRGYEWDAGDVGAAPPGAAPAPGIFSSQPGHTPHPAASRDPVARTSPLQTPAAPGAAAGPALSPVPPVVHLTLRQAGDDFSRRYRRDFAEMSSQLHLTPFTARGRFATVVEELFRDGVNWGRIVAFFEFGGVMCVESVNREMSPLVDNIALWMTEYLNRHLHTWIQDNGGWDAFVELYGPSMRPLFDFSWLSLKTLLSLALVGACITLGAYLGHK

CCOc1cncc(-c2cc(CN3CCN(c4ccc(C(=O)NS(=O)(=O)CCC(F)(F)F)cc4)CC3)cc(OC(F)(F)F)c2)c1 [B2N064-01, 4-[4-[[3-(5-Ethoxypyridin-3-yl)-5-(trifluoromethoxy)phenyl]methyl]piperazin-1-yl]-N-(3,3,3-trifluoropropylsulfonyl)benzamide]
ASMS ratio (%) (n = 1): 0.0% | ASMS ratio (%) (n = 2): 0.0%

CCOc1cccc(-c2ccc(CN3CCN(c4ccc(C(=O)NS(=O)(=O)CCC(F)(F)F)cc4)CC3)c3ccccc23)c1 [B2N065-01]
ASMS ratio (%) (n = 1): 0.0% | ASMS ratio (%) (n = 2): 0.0%

CCOc1cncc(-c2ccc(CN3CCN(c4ccc(C(=O)NS(=O)(=O)CCC(F)(F)F)cc4)CC3)c3ccccc23)c1 [B2N066-01, 4-[4-[[4-(5-Ethoxypyridin-3-yl)naphthalen-1-yl]methyl]piperazin-1-yl]-N-(3,3,3-trifluoropropylsulfonyl)benzamide]
ASMS ratio (%) (n = 1): 0.0% | ASMS ratio (%) (n = 2): 0.0%

CCOc1cccc(-c2csc(CN3CCN(c4ccc(C(=O)NS(=O)(=O)CCC(F)(F)F)cc4)CC3)c2)c1 [B2N067-01, 4-[4-[[4-(3-Ethoxyphenyl)thiophen-2-yl]methyl]piperazin-1-yl]-N-(3,3,3-trifluoropropylsulfonyl)benzamide]
ASMS ratio (%) (n = 1): 0.0% | ASMS ratio (%) (n = 2): 0.0%

CCOc1cncc(-c2csc(CN3CCN(c4ccc(C(=O)NS(=O)(=O)CCC(F)(F)F)cc4)CC3)c2)c1 [B2N068-01]
ASMS ratio (%) (n = 1): 0.0% | ASMS ratio (%) (n = 2): 0.5%

CCOc1cccc(C#Cc2ccccc2CN2CCN(c3ccc(C(=O)NS(=O)(=O)CCC(F)(F)F)cc3)CC2)c1 [B2N069-01, 4-[4-[[2-[2-(3-Ethoxyphenyl)ethynyl]phenyl]methyl]piperazin-1-yl]-N-(3,3,3-trifluoropropylsulfonyl)benzamide]
ASMS ratio (%) (n = 1): −1.8% | ASMS ratio (%) (n = 2): −1.5%

CCOc1cncc(C#Cc2ccccc2CN2CCN(c3ccc(C(=O)NS(=O)(=O)CCC(F)(F)F)cc3)CC2)c1 [B2N070-01, 4-[4-[[2-[2-(5-Ethoxypyridin-3-yl)ethynyl]phenyl]methyl]piperazin-1-yl]-N-(3,3,3-trifluoropropylsulfonyl)benzamide]
ASMS ratio (%) (n = 1): 0.0% | ASMS ratio (%) (n = 2): 0.0%

CCOc1cccc(-c2ccccc2CN2CCN(c3ccc(C(=O)NS(=O)(=O)CCC(F)(F)F)nn3)CC2)c1 [B2N071-01, 6-[4-[[2-(3-Ethoxyphenyl)phenyl]methyl]piperazin-1-yl]-N-(3,3,3-trifluoropropylsulfonyl)pyridazine-3-carboxamide]
ASMS ratio (%) (n = 1): 0.0% | ASMS ratio (%) (n = 2): 0.0%

CCOc1cncc(-c2ccccc2CN2CCN(c3ccc(C(=O)NS(=O)(=O)CCC(F)(F)F)nn3)CC2)c1 [B2N072-01]
ASMS ratio (%) (n = 1): 0.0% | ASMS ratio (%) (n = 2): 0.1%

CCOc1cccc(-c2ccc(CN3CCN(c4ccc(C(=O)NS(=O)(=O)CCC(F)(F)F)nn4)CC3)cc2C)c1 [B2N073-01, 6-[4-[[4-(3-Ethoxyphenyl)-3-methylphenyl]methyl]piperazin-1-yl]-N-(3,3,3-trifluoropropylsulfonyl)pyridazine-3-carboxamide]
ASMS ratio (%) (n = 1): 0.0% | ASMS ratio (%) (n = 2): 0.0%

CCOc1cncc(-c2ccc(CN3CCN(c4ccc(C(=O)NS(=O)(=O)CCC(F)(F)F)nn4)CC3)cc2C)c1 [B2N074-01, 6-[4-[[4-(5-Ethoxypyridin-3-yl)-3-methylphenyl]methyl]piperazin-1-yl]-N-(3,3,3-trifluoropropylsulfonyl)pyridazine-3-carboxamide]
ASMS ratio (%) (n = 1): 0.0% | ASMS ratio (%) (n = 2): 0.0%

CCOc1cncc(-c2ccc(CN3CCN(c4ccc(C(=O)NS(=O)(=O)CCC(F)(F)F)nn4)CC3)c(CC)c2)c1 [B2N076-01, 6-[4-[[4-(5-Ethoxypyridin-3-yl)-2-ethylphenyl]methyl]piperazin-1-yl]-N-(3,3,3-trifluoropropylsulfonyl)pyridazine-3-carboxamide]
ASMS ratio (%) (n = 1): 0.0% | ASMS ratio (%) (n = 2): 0.0%

CCOc1cccc(-c2ccc(CN3CCN(c4ccc(C(=O)NS(=O)(=O)CCC(F)(F)F)nn4)CC3)cc2F)c1 [B2N077-01, 6-[4-[[4-(3-Ethoxyphenyl)-3-fluorophenyl]methyl]piperazin-1-yl]-N-(3,3,3-trifluoropropylsulfonyl)pyridazine-3-carboxamide]
ASMS ratio (%) (n = 1): 0.0% | ASMS ratio (%) (n = 2): 0.0%

CCOc1cncc(-c2ccc(CN3CCN(c4ccc(C(=O)NS(=O)(=O)CCC(F)(F)F)nn4)CC3)cc2F)c1 [B2N078-01, 6-[4-[[4-(5-Ethoxypyridin-3-yl)-3-fluorophenyl]methyl]piperazin-1-yl]-N-(3,3,3-trifluoropropylsulfonyl)pyridazine-3-carboxamide]
ASMS ratio (%) (n = 1): 0.0% | ASMS ratio (%) (n = 2): 0.0%

CCOc1cccc(-c2ccc(CN3CCN(c4ccc(C(=O)NS(=O)(=O)CCC(F)(F)F)nn4)CC3)c(OC)c2)c1 [B2N079-01]
ASMS ratio (%) (n = 1): 0.0% | ASMS ratio (%) (n = 2): 0.0%

CCOc1cncc(-c2ccc(CN3CCN(c4ccc(C(=O)NS(=O)(=O)CCC(F)(F)F)nn4)CC3)c(OC)c2)c1 [B2N080-01]
ASMS ratio (%) (n = 1): 0.0% | ASMS ratio (%) (n = 2): 0.0%

CCOc1cccc(-c2cc(CN3CCN(c4ccc(C(=O)NS(=O)(=O)CCC(F)(F)F)nn4)CC3)cc(OCC)c2)c1 [B2N081-01, 6-[4-[[3-Ethoxy-5-(3-ethoxyphenyl)phenyl]methyl]piperazin-1-yl]-N-(3,3,3-trifluoropropylsulfonyl)pyridazine-3-carboxamide]
ASMS ratio (%) (n = 1): 0.0% | ASMS ratio (%) (n = 2): 0.0%

CCOc1cncc(-c2cc(CN3CCN(c4ccc(C(=O)NS(=O)(=O)CCC(F)(F)F)nn4)CC3)cc(OCC)c2)c1 [B2N082-01]
ASMS ratio (%) (n = 1): 2.5% | ASMS ratio (%) (n = 2): 2.8%

CCOc1cccc(-c2cc(CN3CCN(c4ccc(C(=O)NS(=O)(=O)CCC(F)(F)F)nn4)CC3)cc(OC(C)C)c2)c1 [B2N083-01, 6-[4-[[3-(3-Ethoxyphenyl)-5-propan-2-yloxyphenyl]methyl]piperazin-1-yl]-N-(3,3,3-trifluoropropylsulfonyl)pyridazine-3-carboxamide]
ASMS ratio (%) (n = 1): 0.0% | ASMS ratio (%) (n = 2): 0.0%

CCOc1cncc(-c2cc(CN3CCN(c4ccc(C(=O)NS(=O)(=O)CCC(F)(F)F)nn4)CC3)cc(OC(C)C)c2)c1 [B2N084-01, 6-[4-[[3-(5-Ethoxypyridin-3-yl)-5-propan-2-yloxyphenyl]methyl]piperazin-1-yl]-N-(3,3,3-trifluoropropylsulfonyl)pyridazine-3-carboxamide]
ASMS ratio (%) (n = 1): 0.0% | ASMS ratio (%) (n = 2): 0.0%

CCOc1cccc(-c2cc(OC)c(CN3CCN(c4ccc(C(=O)NS(=O)(=O)CCC(F)(F)F)nn4)CC3)c(OC)c2)c1 [B2N085-01]
ASMS ratio (%) (n = 1): 0.0% | ASMS ratio (%) (n = 2): 0.0%

CCOc1cncc(-c2cc(OC)c(CN3CCN(c4ccc(C(=O)NS(=O)(=O)CCC(F)(F)F)nn4)CC3)c(OC)c2)c1 [B2N086-01, 6-[4-[[4-(5-Ethoxypyridin-3-yl)-2,6-dimethoxyphenyl]methyl]piperazin-1-yl]-N-(3,3,3-trifluoropropylsulfonyl)pyridazine-3-carboxamide]
ASMS ratio (%) (n = 1): 0.0% | ASMS ratio (%) (n = 2): 0.0%

CCOc1cccc(-c2cc(CN3CCN(c4ccc(C(=O)NS(=O)(=O)CCC(F)(F)F)nn4)CC3)cc(C(F)(F)F)c2)c1 [B2N087-01]
ASMS ratio (%) (n = 1): 0.0% | ASMS ratio (%) (n = 2): 0.0%

CCOc1cncc(-c2cc(CN3CCN(c4ccc(C(=O)NS(=O)(=O)CCC(F)(F)F)nn4)CC3)cc(C(F)(F)F)c2)c1 [B2N088-01, 6-[4-[3-(5-Ethoxypyridin-3-yl)-5-(trifluoromethyl)phenylmethyl]piperazin-1-yl]-N-(3,3,3-trifluoropropylsulfonyl)pyridazine-3-carboxamide]
ASMS ratio (%) (n = 1): 0.0% | ASMS ratio (%) (n = 2): 0.0%

CCOc1cccc(-c2cc(CN3CCN(c4ccc(C(=O)NS(=O)(=O)CCC(F)(F)F)nn4)CC3)cc(OC(F)(F)F)c2)c1 [B2N089-01, 6-[4-[[3-(3-Ethoxyphenyl)-5-(trifluoromethoxy)phenyl]methyl]piperazin-1-yl]-N-(3,3,3-trifluoropropylsulfonyl)pyridazine-3-carboxamide]
ASMS ratio (%) (n = 2): 0.0%

CCOc1cncc(-c2cc(CN3CCN(c4ccc(C(=O)NS(=O)(=O)CCC(F)(F)F)nn4)CC3)cc(OC(F)(F)F)c2)c1 [B2N090-01, 6-[4-[[3-(5-Ethoxypyridin-3-yl)-5-(trifluoromethoxy)phenyl]methyl]piperazin-1-yl]-N-(3,3,3-trifluoropropylsulfonyl)pyridazine-3-carboxamide]
ASMS ratio (%) (n = 1): 0.0% | ASMS ratio (%) (n = 2): 0.0%

CCOc1cccc(-c2ccc(CN3CCN(c4ccc(C(=O)NS(=O)(=O)CCC(F)(F)F)nn4)CC3)c3ccccc23)c1 [B2N091-01, 6-[4-[[4-(3-Ethoxyphenyl)naphthalen-1-yl]methyl]piperazin-1-yl]-N-(3,3,3-trifluoropropylsulfonyl)pyridazine-3-carboxamide]
ASMS ratio (%) (n = 1): 0.0% | ASMS ratio (%) (n = 2): 0.0%

CCOc1cncc(-c2ccc(CN3CCN(c4ccc(C(=O)NS(=O)(=O)CCC(F)(F)F)nn4)CC3)c3ccccc23)c1 [B2N092-01]
ASMS ratio (%) (n = 1): 0.0% | ASMS ratio (%) (n = 2): 0.0%

CCOc1cccc(-c2csc(CN3CCN(c4ccc(C(=O)NS(=O)(=O)CCC(F)(F)F)nn4)CC3)c2)c1 [B2N093-01, 6-[4-[[4-(3-Ethoxyphenyl)thiophen-2-yl]methyl]piperazin-1-yl]-N-(3,3,3-trifluoropropylsulfonyl)pyridazine-3-carboxamide]
ASMS ratio (%) (n = 1): 0.0%

CCOc1cncc(-c2csc(CN3CCN(c4ccc(C(=O)NS(=O)(=O)CCC(F)(F)F)nn4)CC3)c2)c1 [B2N094-01, 6-[4-[[4-(5-Ethoxypyridin-3-yl)thiophen-2-yl]methyl]piperazin-1-yl]-N-(3,3,3-trifluoropropylsulfonyl)pyridazine-3-carboxamide]
ASMS ratio (%) (n = 1): 0.0% | ASMS ratio (%) (n = 2): 0.0%
